Data as given in patent US11433075B2, “Methods of treating glioblastoma” (TriAct Therapeutics, Inc., priority 2017, dated 2022).
Like-named read-outs stand apart in the source and are kept apart here.

Assays:
[1] = human, in vivo, iv
Text: It was a single arm, multi dose, dose escalating trial in newly diagnosed GBM patients. The total number of patients was 43, with about 5 patients per cohort. Patients who tolerated radiation (XRT) and temozolomide (TMZ) were recruited. Inclusion criteria included completion of XRT and TMZ without grade 3 or 4 toxicity and labs within acceptable range within 6 weeks of completing XRT. The end points included safety, maximum tolerated dose (MTD), and signal of activity.
The patients were separated into two study groups with the following treatment schema (also see FIG. 1).
Continuous Reassessment Method (CRM) was used to determine dose escalation. PK was drawn at cycle 1, 2, 3 and off treatment. PD via PBMCs was drawn at cycle 1, 2, 3 and off treatment. No cytochrome P450-inducing anticonvulsants. However, Gliadel was permitted.
Dosing is IV 2×/week continuous.

[2] = tested on: adult patients with newly diagnosed glioblastoma multiforme (GBM); assay: Phase II GBM trial (ABTC0703): overall survival; assay type: in vivo, human
Experimental: 76 patients were recruited for this study.
The following treatment schema (also see FIG. 2).
RT: 60 Gy (total) TMZ: Daily 75 mg/m^2
BSI-201: once per day, twice a week (8.0 mg/kg IV q2 wk)
Rest (4 weeks) with no treatment.
Maintenance Cycles 1-6 (4 weeks)
BSI-201: once per day, twice a week (8.6 mg/kg IV q2 wk)
(§1) For assessing the efficacy of the treatment in terms of overall survival, the overall failure rate were estimated and compared to the failure rate of 0.6 per-person year of follow-up regarding the Phase III trial done by Stupp et al. in the same patient population treated with RT plus concomitant and adjuvant temozolomide.
The primary endpoint was death due to all causes. The survival time is defined from time of histological diagnosis to death occurrence. The overall failure rate was expressed as hazard of failure per person-year of follow-up. The total patient population for this part of the study was defined as all patients who have met the eligibility criteria, not met ineligibility criteria, and signed patient informed consent.
It yield above 90% power to detect a 30% reduction in hazard rate with observed hazard ratio of 0.7 (0.42 vs. 0.6) at an alpha level of 0.1 to be significant. The overall failure rate was estimated by dividing the number of events (deaths) by the total exposure time in the study cohort along with 95% confidence intervals. Survival probability and median time of survival was calculated using Kaplan-Meier method.

[3] = tested on: newly diagnosed GBM patients; assay: Phase I GBM study: safety, DLT, MTD, adverse events; assay type: in vivo, human
Experimental: Study Group 1 Treatment Cycles 4 weeks each (N=23)
Study Group 2 Treatment Cycles 10 weeks each (N=20)
No cytochrome P450-inducing anticonvulsants. However, Gliadel was permitted.
Group 1: TMZ (150-200 mg/m^2 given 5 days/month×6 cycles)—standard dose with BSI-201 starting at 5.1 mg/kg.
Group 2: TMZ (75 mg/m^2 daily 42 days on 30 days off×3 cycles)—metronomic dose with BSI-201 starting at 5.1 mg/kg.
Using modified continual reassessment method, MTD was defined for metronomic and standard dose TMZ. 6 dose levels were tested (lowest 5.1 mg/kg-highest 9.5 mg/kg IV 2×/wk). […] The DLTs across both groups were: rash (1), hypersensitivity reaction (1), fatigue (1) and a thromboembolic event (1). […] Phase 2 dose defined as 8 mg/kg IV 2×/wk with standard TMZ and 8.6 mg/kg IV 2×/wk with metronomic TMZ.

[4] = tested on: same patient population (newly diagnosed GBM); conditions: Stupp et al, 2005 (RT + temozolomide); cited from earlier work
[5] = tested on: same patient population (newly diagnosed GBM); assay: EORTC Phase III trial, Stupp et al. 2005 (RT plus concomitant and adjuvant temozolomide); assay type: in vivo, human; conditions: 2005 n = 287, conversion
Text: as §1

GBM patients = assay: RTOG 0525 trial, 2013 (STD and DD arms); assay type: in vivo, human; conditions: conversion

NC(=O)c1ccc(I)c(N)c1 [IABM]
Cmax ([1]; 5.1 mg/kg): 5.7 ± 4.1 ng/mL | Cmax ([1]; 6.1 mg/kg): 7.2 ± 1.8 ng/mL | Cmax ([1]; 6.8 mg/kg): 8.4 ± 3.7 ng/mL | Cmax ([1]; 8 mg/kg): 10.3 ± 2.9 ng/mL | Cmax ([1]; 8.6 mg/kg): 9.7 ± 2.4 ng/mL | Cmax ([1]; 9.5 mg/kg): 13.6 ± 5.3 ng/mL

NC(=O)c1ccc(I)c([N+](=O)[O-])c1 [Iniparib, 4-iodo-3-nitrobenzamide]
Median Overall Survival, mOS, MGMT methylated ([2]; ABTC0703, n = 29): 27 (n = 29) Months | Median Overall Survival, mOS, MGMT unmethylated ([2]; ABTC0703, n = 37): 15.8 (n = 37) Months | Hazard Rate (per person year of follow-up) ([2]; ABTC0703 n = 76, hazard rate of death): 0.403 per person year of follow-up | Median Overall Survival Months, (95% CI) ([2]; ABTC0703 n = 76, iniparib + RT + TMZ, then iniparib + TMZ maintenance): 21.6 (16.1-23.7) Months | Comparison with RTOG 0525 (2013) ([2]; extrapolated and not pre-planned analysis): improved | Reduction of HR versus Stupp et al 2005 ([2]; single arm phase 2, efficacy endpoint met): ≥ 25% | Phase 2 dose ([3]; IV 2×/wk with metronomic TMZ): 8.6 mg/kg | Phase 2 dose ([3]; IV 2×/wk with standard TMZ): 8 mg/kg | DLT: fatigue (number) ([3]; human, in vivo): 1 | DLT: hypersensitivity reaction (number) ([3]; human, in vivo): 1 | DLT: rash (number) ([3]; human, in vivo): 1 | DLT: thromboembolic event (number) ([3]; human, in vivo): 1 | White counts decreased ([3]; human, in vivo): 22 (51) No. (% of pts)

Cn1nnc2c(C(N)=O)ncn2c1=O [temozolomide]
Neutrophil Count Decreased [4]: 7% | Platelet Count Decreased [4]: 12% | White Blood Cell Decreased [4]: 7% | Hazard Rate (per person year of follow-up) [5]: 0.6 per person year of follow-up | Hazard Rate (per person year of follow-up) (GBM patients; RTOG 0525, 2013 DD arm, n = 422): 0.558 per person year of follow-up | Hazard Rate (per person year of follow-up) (GBM patients; RTOG 0525, 2013 STD arm, n = 411): 0.501 per person year of follow-up
